In one test the target is T1, RAR ? (Homo sapiens, UniProt P10826).
T1 construct: Recombinant full-length RAR proteins were expressed as S-Tag fusion proteins in BL21 E. coli cells; S-Tag; made in house; host or cells: E. coli BL21
T1 sequence (P10826 1-455): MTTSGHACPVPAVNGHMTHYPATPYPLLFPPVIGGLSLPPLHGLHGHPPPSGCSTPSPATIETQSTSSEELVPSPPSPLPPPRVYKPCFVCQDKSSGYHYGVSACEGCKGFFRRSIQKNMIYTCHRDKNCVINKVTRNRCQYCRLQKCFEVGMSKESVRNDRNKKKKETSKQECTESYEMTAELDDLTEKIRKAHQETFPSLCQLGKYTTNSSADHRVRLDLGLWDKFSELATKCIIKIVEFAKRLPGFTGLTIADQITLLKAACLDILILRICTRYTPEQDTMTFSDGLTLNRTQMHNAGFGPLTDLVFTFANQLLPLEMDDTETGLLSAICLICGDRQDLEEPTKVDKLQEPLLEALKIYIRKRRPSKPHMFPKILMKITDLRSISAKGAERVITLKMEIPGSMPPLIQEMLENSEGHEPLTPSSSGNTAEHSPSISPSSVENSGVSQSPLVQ
As to the kind of experiment: Competitive [3H]ATRA binding to recombinant RAR (third subtype). Conditions: for binding to RAR (third subtype): concentrations up to 500 nM. The source says:
(§1) Because the novel compounds are retinoid-related analogs, they bind to the retinoid receptors in vivo and thus have increased therapeutic potentials. Similar to ATRA, these novel compounds act as a ligand for the retinoic acid receptors (RARs, α, β, and γ) but not the retinoid X receptors (RXRs, α, β, and γ). […] (Nervi C, Grippo J F, Sherman M I, George M D, Jetten A M, Identification and characterization of nuclear retinoic acid-binding activity inhuman myeloblastic leukemia HL-60 cells, Proc Natl Acad Sci USA 86: 5854-5858, 1989) The dissociation constants for the inhibitors is determined by the well described charcoal absorption method (Yang N, Schule R, Mangelsdorf D J, Evans R M, Characterization of DNA binding and retinoic acid binding properties of retinoic acid receptor, Proc Natl Acad Sci USA 88: 3559-3663, 1991). Briefly, serial dilutions of the novel compounds (10^−11 to 10^−5 M) in dimethyl sulfoxide, 100 μL each is used. 12 mg of crude cytosolic extracts is prepared from pET15b (Novagen, Madison, Wis.)/hRAR-α, -β, and -γ prepared protein is used for each data point. All reactions are conducted in binding buffer (60 mM Na imidazole, 500 mM NaCl, 20 mM Tris, pH 7.9) for 14-16 hours at 4° C. in a final volume of 1 mL. Unbound [^3H]ATRA is removed by addition of 0.5 mL of equivalent-sized dextran-treated charcoal (final concentration 3% [wt/vol]) for 15 minutes at 4° C. […]
(§2) Since the RAMBAs are retinoic acid analogs, it is possible that some of the compounds may bind to retinoid receptors and function as either transcriptional agonists/antagonists or may display anti AP-1 activity (Chambon P, A decade of molecular biology of retinoic acid, FASEB J 10: 5899-5904, 19962. The ability of three RAMBAs, VN/14-1, VN/50A-1 and VN/66-1 to bind to the individual RAR receptors was thus evaluated in vitro. Recombinant full-length RAR proteins were expressed as S-Tag fusion proteins in BL21 E. coli cells used for competitive binding assays. Each competition-binding assay contained 1 nM [^3H] […]

The target in a further test is T2, RARα (Homo sapiens, UniProt P10276).
T2 construct: Recombinant full-length RAR proteins were expressed as S-Tag fusion proteins in BL21 E. coli cells; S-Tag; made in house; host or cells: E. coli BL21
T2 sequence (P10276 1-462): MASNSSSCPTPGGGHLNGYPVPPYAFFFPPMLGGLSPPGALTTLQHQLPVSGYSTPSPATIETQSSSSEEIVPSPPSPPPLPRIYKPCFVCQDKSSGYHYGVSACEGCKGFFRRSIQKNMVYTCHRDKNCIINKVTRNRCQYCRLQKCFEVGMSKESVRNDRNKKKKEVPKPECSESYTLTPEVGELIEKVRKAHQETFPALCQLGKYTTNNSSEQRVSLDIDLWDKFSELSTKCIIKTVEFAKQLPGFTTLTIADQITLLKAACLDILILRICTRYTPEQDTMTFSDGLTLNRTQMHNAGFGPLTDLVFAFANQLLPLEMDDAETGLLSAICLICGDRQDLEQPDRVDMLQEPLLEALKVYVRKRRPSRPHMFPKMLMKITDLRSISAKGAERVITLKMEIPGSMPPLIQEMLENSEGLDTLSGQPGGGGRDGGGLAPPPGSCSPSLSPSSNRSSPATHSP
Put plainly: Competitive [3H]ATRA binding to recombinant RARα. As to conditions: for binding to RARα: concentrations up to 500 nM.
Source text: as §1, §2

Another test concerns the target T3, CYP17 (17-lyase) (Homo sapiens, UniProt P05093).
T3 sequence (P05093 1-508): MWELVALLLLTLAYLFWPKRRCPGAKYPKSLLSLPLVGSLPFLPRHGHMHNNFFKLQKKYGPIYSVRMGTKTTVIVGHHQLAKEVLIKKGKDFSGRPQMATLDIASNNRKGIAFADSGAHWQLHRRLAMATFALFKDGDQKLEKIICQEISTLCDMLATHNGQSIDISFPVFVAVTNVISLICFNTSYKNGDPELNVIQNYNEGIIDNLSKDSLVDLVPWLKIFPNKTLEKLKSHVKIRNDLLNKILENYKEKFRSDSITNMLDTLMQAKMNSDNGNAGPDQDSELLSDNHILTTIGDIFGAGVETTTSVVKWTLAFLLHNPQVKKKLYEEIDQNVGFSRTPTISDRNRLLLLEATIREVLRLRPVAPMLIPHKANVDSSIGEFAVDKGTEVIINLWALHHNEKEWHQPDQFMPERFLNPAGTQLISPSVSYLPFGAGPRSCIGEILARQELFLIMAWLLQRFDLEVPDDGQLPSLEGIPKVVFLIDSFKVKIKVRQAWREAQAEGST
As to the kind of experiment: Selectivity: effect on CYP17 (17-lyase). It counts as biochemical. As to conditions: concentration as high as 5 μM. Here is the method:
The selectivity of the compounds of the present invention towards ATRA-4-hydroxylase was tested by measuring the effect on the key enzymes in the biosynthesis of estradiol and dehydroepiandrosterone, CYP19 (aromatase) and CYP17 (17-lyase), respectively.

Where [1] appears, read: 1 nM [3H]ATRA, competitor 1 nM to 500 nM.

As to `CC(C=CC1=C(C)C(n2ccnc2)CCC1(C)C)=CC=CC(C)=CC(=O)Nc1ccc(O)cc1` (racemic) [VN/66-1, (±)-4-(1H-imidazol-1-yl), N-(4′-hydroxyphenyl)retinamide], at RAR ?, the “binding to RAR (third subtype)” value is “did not bind”. For the same molecule, the “binding to RARα” value at RARα is recorded as “did not bind”. Moreover, the “inhibition of CYP17 (17-lyase)” value against CYP17 (17-lyase) is on record as “barely inhibited”.
`CC(C=CC1=C(C)C(n2ccnc2)CCC1(C)C)=CC=CC(C)=CC(=O)n1ccnc1` (stereo not drawn) [VN/50A-1]: the “binding to RAR (third subtype)” value on RAR ? is listed as “did not bind”. Besides, at RARα, the “binding to RARα” value was “did not bind”. In addition, the “inhibition of CYP17 (17-lyase)” value on CYP17 (17-lyase) is “barely inhibited”.
In the case of `CC1=C(/C=C/C(C)=C/C=C/C(C)=C/C(=O)O)C(C)(C)CCC1n1ccnc1` (racemic) [VN/14-1, (±)-4-(1H-imidazole-1-yl)retinoic acid], the values for the IC50 at RAR ? (setting [1]) and on RARα (setting [1]) were approximately 200 nM and approximately 16 nM, respectively. Besides, the “inhibition of CYP17 (17-lyase)” value at CYP17 (17-lyase) is given as “barely inhibited”.

The values are drawn from patent US20120122908A1, “Novel C-4 Substituted Retinoids” (University of Maryland, priority 2000, published 2012).
